Results on 3 molecules are retold here after patent US20150261911A1, “CRYSTAL STRUCTURE” (Heptares Therapeutics Limited, priority 2014, published 2015).

Positions count from the first letter of the chain named. In names and notes the source's numbering stands. Entries after “also recorded” stand apart in the source; their conditions may differ.

One data set has as its target T1, CRF1R F203A(3.44) (Homo sapiens, UniProt P34998, F203A).
T1 construct: expressed in transfected cells; host or cells: HEK293T, transient; whole cells solubilised in DDM
T1 sequence (P34998 with tags, fused parts or gaps F203A): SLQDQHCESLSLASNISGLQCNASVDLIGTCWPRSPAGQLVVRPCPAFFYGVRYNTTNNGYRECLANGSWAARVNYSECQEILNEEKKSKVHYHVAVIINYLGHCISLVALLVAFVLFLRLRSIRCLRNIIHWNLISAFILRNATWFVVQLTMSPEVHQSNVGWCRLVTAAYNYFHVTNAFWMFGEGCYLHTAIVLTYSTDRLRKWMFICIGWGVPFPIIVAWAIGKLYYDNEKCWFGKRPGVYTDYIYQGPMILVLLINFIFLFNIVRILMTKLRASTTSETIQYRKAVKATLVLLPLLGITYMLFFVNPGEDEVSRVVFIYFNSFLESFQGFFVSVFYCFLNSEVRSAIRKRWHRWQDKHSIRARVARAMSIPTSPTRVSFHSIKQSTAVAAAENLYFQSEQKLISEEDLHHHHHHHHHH
As to the kind of experiment: Solubilised whole cell ligand binding, alanine mutagenesis. The conditions noted are these: Phe203^3.44Ala. How it is done: (§1) HEK293T cells transiently transfected with CRF1R constructs were incubated in buffer (50mMTris-HCl pH 7.5, 150mMNaCl, EDTA-free protease inhibitors) with 30 nM [^3H]CP-376395, and 120 nM cold CP-376395 (Tocris) for 18 hours at room temperature. Reactions were transferred to ice and all subsequent steps performed at 4° C. Cells were solubilized in 1% (w/v) n-dodecyl-β-D-maltopyranoside (DDM, Affymetrix) for 1 hour and crude lysates cleared by centrifugation at 16.000×g for 15 minutes. Thermostability of the receptor was measured by incubation at varying temperatures for 30 minutes followed by separation of excess and unbound radioligand by gel filtration. Levels of ligand-bound receptor were then determined using a liquid scintillation counter.
(§2) For saturation binding experiments, membranes isolated from HEK293T cells transiently expressing wild-type CRF1R (15 μg/well), CRF1R StaR (6 μg/well), CRF1R StaR with T4L fusion (20 μg/well), and CRF1R-#105 (20 μg/well) were incubated in buffer (50mMTris-HCl pH 7.5, 150 mM NaCl, 0.1% (w/v) PEI, EDTA-free protease inhibitors) with [^3H]CP-376395 (0-60 nM) in the presence or absence of 30 uM cold CP-376395 in a final volume of 500 μl. Final DMSO concentration in each reaction was 5% (v/v). Membranes were incubated for 18 hours at room temperature before being terminated by rapid filtration through 96-well GF/C UniFilter plates pre-soaked in 0.3% (w/v) PEI, followed by washing with PBS with 0.15% (w/v) CHAPS. Plates were dried, 50 μl Ultima Gold-F added per well and bound ligand measured using a Packard Microbeta counter. Data were analyzed using a global fitted one-site binding hyperbola in GraphPad Prism v5 to generate Kd. For solubilized whole cell ligand binding experiments, HEK293T cells transiently expressing eGFP-tagged wild-type CRF1R or single point mutants were treated as described above for thermostability experiments, without the 30 minute heating step. Specific binding was determined by subtracting untransfected controls. Expression of each construct was quantified by eGFP fluorescence of whole cells measured at Ex/Em of 488/520 nm.

The target of a further data set is T2, CRF1R L280A(5.47) (Homo sapiens, UniProt P34998, L280A).
T2 construct: expressed in transfected cells; host or cells: HEK293T, transient; whole cells solubilised in DDM
T2 sequence (P34998 with tags, fused parts or gaps L280A): T1 sequence (P34998 with tags, fused parts or gaps F203A) with A180F, L257A
The description is as above. As to conditions: Leu280^5.47Ala. How it is done: as §1, §2

The target in a further data set is T3, CRF1R N283A(5.50) (Homo sapiens, UniProt P34998, N283A).
T3 construct: expressed in transfected cells; host or cells: HEK293T, transient; whole cells solubilised in DDM
T3 sequence (P34998 with tags, fused parts or gaps N283A): T1 sequence (P34998 with tags, fused parts or gaps F203A) with A180F, N260A
The data set is described as above. The conditions noted are these: Asn283^5.50Ala. How it is done: as §1, §2

The target of the next data set is T4, CRF1R Q355A(7.49) (Homo sapiens, UniProt P34998, Q355A).
T4 construct: expressed in transfected cells; host or cells: HEK293T, transient; whole cells solubilised in DDM
T4 sequence (P34998 with tags, fused parts or gaps Q355A): T1 sequence (P34998 with tags, fused parts or gaps F203A) with A180F, Q332A
Described as above. The conditions noted are these: Gln355^7.49 substituted with alanine. How it is done: as §1, §2

Data set [1] can be described thus: Thermostability measurement of CRF1R constructs solubilised in DDM, read out by [3H]CP-376395 binding. The data set is classed as physicochemical, human. As to conditions: measured using [3H]CP-376395 binding, mean of four independent experiments, standard deviation in parentheses. How it is done:
as §1

As to `CCC(CC)Nc1cc(C)nc(Oc2c(C)cc(C)cc2C)c1C` [CP-376395], the “antagonist binding after mutation to alanine” value on CRF1R F203A(3.44) and on CRF1R L280A(5.47) was “negligible or no binding detected” throughout. Moreover, the “ligand binding after mutation to alanine” value on CRF1R N283A(5.50) is “complete loss of ligand binding; also recorded: negligible or no binding detected”. Moreover, the “CP-376395 binding after substitution with alanine” value on CRF1R Q355A(7.49) is on record as “did not affect”.

B1: CRF1R StaR: thermostabilized CRF1R with 12 mutations: V120A, L144A, W156A, S160A, S222A, K228A, F260A, I277A, Y309A, F330A, S349A, Y363A (protein)
chain: MGGHPQLRLVKALLLLGLNPVSASLQDQHCESLSLASNISGLQCNASVDLIGTCWPRSPAGQLVVRPCPAFFYGVRYNTTNNGYRECLANGSWAARVNYSECQEILNEEKKSKVHYHVAAIINYLGHCISLVALLVAFVLFLRARSIRCLRNIIHANLIAAFILRNATWFVVQLTMSPEVHQSNVGWCRLVTAAYNYFHVTNFFWMFGEGCYLHTAIVLTYATDRLRAWMFICIGWGVPFPIIVAWAIGKLYYDNEKCWAGKRPGVYTDYIYQGPMALVLLINFIFLFNIVRILMTKLRASTTSETIQARKAVKATLVLLPLLGITYMLAFVNPGEDEVSRVVFIYFNAFLESFQGFFVSVFACFLNSEVRSAIRKRWHRWQDKHSIRARVARAMSIPTSPTRVSFHSIKQSTAVAAAENLYFQSEQKLISEEDLHHHHHHHHHH
modifications: C-terminal tag
In the case of B1, in data set [1], the “Mean Tm” value is 44.7 (2.2) ° C.

B2: CRF1R wild type: wild-type human corticotropin-releasing factor receptor 1 (FIG. 12, SEQ ID NO:18) (protein)
chain: MGGHPQLRLVKALLLLGLNPVSASLQDQHCESLSLASNISGLQCNASVDLIGTCWPRSPAGQLVVRPCPAFFYGVRYNTTNNGYRECLANGSWAARVNYSECQEILNEEKKSKVHYHVAVIINYLGHCISLVALLVAFVLFLRLRSIRCLRNIIHWNLISAFILRNATWFVVQLTMSPEVHQSNVGWCRLVTAAYNYFHVTNFFWMFGEGCYLHTAIVLTYSTDRLRKWMFICIGWGVPFPIIVAWAIGKLYYDNEKCWFGKRPGVYTDYIYQGPMILVLLINFIFLFNIVRILMTKLRASTTSETIQYRKAVKATLVLLPLLGITYMLFFVNPGEDEVSRVVFIYFNSFLESFQGFFVSVFYCFLNSEVRSAIRKRWHRWQDKHSIRARVARAMSIPTSPTRVSFHSIKQSTAVAAAENLYFQSEQKLISEEDLHHHHHHHHHH
In the case of B2, the “Mean Tm” value in data set [1] is 18.4 (2.0) ° C.
